# Measured values: the supplement of paper PMC13380429
# How the values were obtained:
# Conditions in all cases: 72 h
# HepG2 [1] = assay: cell viability relative to DMSO; higher = less toxic
# Calu-3 [2] = assay: as above
# Vero E6 [3] = assay: as above
# U2OS [4] = assay: as above
# Caco-2 [5] = assay: as above
# HepG2 [6] = assay: relative viability EC50 (midpoint between 100% and the lowest measured viability); higher = less toxic
# Calu-3 [7] = assay: as above
# Vero E6 [8] = assay: as above
# U2OS [9] = assay: as above
# Caco-2 [10] = assay: as above
# HepG2 [11] = assay: drug sensitivity score (DSS) for viability; higher = more toxic; extreme values may be limits of the assay
# Calu-3 [12] = assay: as above
# Vero E6 [13] = assay: as above
# U2OS [14] = assay: as above
# Caco-2 [15] = assay: as above
Structure (SMILES),cell viability (HepG2 [1]; 1 nM) [%],cell viability (HepG2 [1]; 10 nM) [%],cell viability (HepG2 [1]; 100 nM) [%],cell viability (HepG2 [1]; 1000 nM) [%],cell viability (HepG2 [1]; 10000 nM) [%],cell viability (Calu-3 [2]; 1 nM) [%],cell viability (Calu-3 [2]; 10 nM) [%],cell viability (Calu-3 [2]; 100 nM) [%],cell viability (Calu-3 [2]; 1000 nM) [%],cell viability (Calu-3 [2]; 10000 nM) [%],cell viability (Vero E6 [3]; 1 nM) [%],cell viability (Vero E6 [3]; 10 nM) [%],cell viability (Vero E6 [3]; 100 nM) [%],cell viability (Vero E6 [3]; 1000 nM) [%],cell viability (Vero E6 [3]; 10000 nM) [%],cell viability (U2OS [4]; 1 nM) [%],cell viability (U2OS [4]; 10 nM) [%],cell viability (U2OS [4]; 100 nM) [%],cell viability (U2OS [4]; 1000 nM) [%],cell viability (U2OS [4]; 10000 nM) [%],cell viability (Caco-2 [5]; 1 nM) [%],cell viability (Caco-2 [5]; 10 nM) [%],cell viability (Caco-2 [5]; 100 nM) [%],cell viability (Caco-2 [5]; 1000 nM) [%],cell viability (Caco-2 [5]; 10000 nM) [%],relative viability EC50 (HepG2 [6]) [µM],relative viability EC50 (Calu-3 [7]) [µM],relative viability EC50 (Vero E6 [8]) [µM],relative viability EC50 (U2OS [9]) [µM],relative viability EC50 (Caco-2 [10]) [µM],drug sensitivity score (HepG2 [11]),drug sensitivity score (Calu-3 [12]),drug sensitivity score (Vero E6 [13]),drug sensitivity score (U2OS [14]),drug sensitivity score (Caco-2 [15])
Cn1cnc2c(NCc3ccccc3)nc(NCCO)nc21 [olomoucine],106,106,96.4,112,114,102,97.9,96,99.9,105,93,98.1,96,99.7,104,103,101,103,96.9,108,97.5,93.3,92.5,98.7,106,> 10,> 10,> 10,> 10,> 10,0,0,0,0,0
COc1ccc2ccc(=O)oc2c1CC=C(C)C [osthol],96.5,105,98.8,106,100,86.6,98.2,104,114,108,95.1,94.4,95.9,93.2,99.2,92.9,100,93.3,99,102,94.3,95.1,94,100,101,> 10,> 10,> 10,> 10,> 10,0,0,0,0,0
CC[C@H](C)[C@@H]1NC(=O)[C@H](Cc2ccc(O)cc2)NC(=O)[C@@H](N)CSSC[C@@H](C(=O)N2CCC[C@H]2C(=O)N[C@@H](CC(C)C)C(=O)NCC(N)=O)NC(=O)[C@H](CC(N)=O)NC(=O)[C@H](CCC(N)=O)NC1=O [oxytocin],114,96.1,105,87.7,99.2,92,93.8,98.9,103,97,106,112,98.7,105,99.2,98.2,99,98.3,98.5,95.7,95.5,122,82.2,100,100,> 10,> 10,> 10,> 10,> 10,0,0,0,0,0
CN1C(=O)C(N2CCCCC2)S/C1=C\C(=O)O (stereo not given) [ozolinone],89.5,107,104,87.1,105,102,93.9,94.1,93.5,95,97.1,103,97,102,117,95.5,97.5,102,99.6,100,113,96.7,92.1,105,114,> 10,> 10,> 10,> 10,> 10,0,0,0,0,0
C#CCN(C)Cc1ccccc1 [pargyline],98.7,96.2,109,89.7,102,93.5,97.4,95.4,89.3,102,96.4,96.3,92.7,93.1,107,99.2,101,99.9,102,103,96,93,96.3,98.6,103,> 10,> 10,> 10,> 10,> 10,0,0,0,0,0
FC(F)(F)C(F)(F)C(F)(F)C(F)(F)C(F)(F)C(F)(F)C(F)(F)C(F)(F)Br [perflubron],104,102,99.9,96.4,105,87.9,108,98.1,102,93.4,109,101,102,92.4,96.7,98.1,100,94.1,104,97.1,97,98.9,91.8,103,91.2,> 10,> 10,> 10,> 10,> 10,0,0,0,0,0
Nc1ccc(/N=N/c2ccccc2)c(N)n1 [phenazopyridine],91.1,91.8,105,89.4,100,91.9,102,88.1,99.1,95.8,109,88.6,102,102,82.7,94,98.4,95.7,99.2,103,85.4,102,97,99.8,94,> 10,> 10,> 10,> 10,> 10,0,0,0.3,0,0
